Entries after “also recorded” stand apart in the source; their conditions may differ. Each block holds one molecule with its values, some of them ahead of it.
Experiments:
TRAMP tumors [1] = details: TRAMP mice, PET 50 minutes post injection
Method: FDG-PET: PET scans were performed on a small animal PET/CT scanner (Inveon, Siemens Healthcare, Malvern, Pa.). Mice were fasted overnight, anesthetized, and injected intravenously with 150-170 uCi FDG in 0.1-0.2 mL saline. PET images were acquired 50 minutes post injection in one 600 second frame. CT images were acquired in 120 projections of continuous rotation to cover 220° with x-ray tube operating at 80 kVp, 0.5 mA, and 175 ms exposure time. The matrix size of the reconstructed CT images was 512×512×662 with an isotropic voxel size of 0.191×0.191×0.191 mm^3 PET images were reconstructed using a manufacturer-provided ordered subsets expectation maximization (OS-EM) algorithm resulting in a 128×128×159 matrices with a voxel size of 0.776×0.776×0.796 mm^3 ROIs were drawn in both the tumors and surrounding tissue to calculate relative tumor signals.

[2] = DNP hyperpolarization (HyperSense, OX063 trityl radical): build-up and polarization; format: physicochemical; details: for Percent Polarization: DNP, 15 mM OX063; for Percent Polarization / Buildup Constant: mean±SD; for Buildup Constant: solid-state build-up constant
MCD mouse liver = experiment: HP DHA 13C MRSI of liver in methionine choline deficient (MCD) diet NAFLD mouse model; format: in vivo
Method: Prior to and post diet, high-resolution T2 and fat-water imaging was conducted at 14 T using a Varian WB600 micro-imager and 40 mm 1H millipede coil (Varian Instruments, Palo Alto, Calif.). Lipid percentage maps were calculated from fat and water images acquired using a conventional spin-echo sequence using the Dixon method. 350 μL of hyperpolarized DHA was injected each mouse (n=4) at baseline and 2 weeks of MCD diet using a Hypersense (Oxford Instruments). 13C MRSI data was acquired using an EPSI readout, variable flip angle scheme, matrix size 16×8×8 and final voxel resolution of 6 mm isotropic on a 3 T GE MRI (GE Healthcare, Waukesha, Wis.) equipped with a multinuclear package and dual-tuned 1H-^13C imaging coil. […] Ratios of HP DHA and VitC were calculated from the peak integrals in 3D MRSI data. Mice were then sacrificed and liver tissue was sectioned for staining with hematoxylin and eosin (H&E, structure) and Oil Red (lipid presence). Livers of normal mice were used for histologic comparison.

rat brains = details: in vivo
Method: (§1) The RF coil used in these experiments was a dual-tuned ^1H-^13C coil with a quadrature ^13C channel and linear ^1H channel construction used in ^13C mouse imaging studies. ^13C MRSI studies were carried out as previously published. 350 μl (mice) or 2 mL (rats) of a hyperpolarized 15 mM [1-^13C] DHA solution were injected similar to previously described methods for [1-^13C]pyruvate. Similar experiments were performed on a set of normal mice using hyperpolarized [1-^13C] Vitamin C at 50 mM.
(§2) Tissues with high exposure to environmental toxins, namely the liver, kidney and lungs, are known to be rich in GSH and were considered the most likely source for the hyperpolarized [1-^13C] Vitamin C signal observed in vivo. In addition, a contribution from highly glycolytic tissues was anticipated, given the rapid transport properties of dehydroascorbate. Analogous to experiments performed previously using hyperpolarized [1-^13C]pyruvate, 3D MRSI studies were conducted on a series of normal mice (n=3), TRAMP mice (n=3), and rats (n=3) using a dual-tuned RF coil.

TRAMP mice = details: mouse, in vivo
Method: as §1, §2

normal mice [3] = details: mouse, in vivo
Method: as §1, §2

TRAMP tumors [4] = experiment: HP [1-13C] DHA 3D MRSI in TRAMP mice (Example 4); format: in vivo, mouse
From the text: Hyperpolarization and dissolution of [1-^13C] DHA: [1-^13C] DHA dimer was polarized and dissolved.

[5] = 11.7 T NMR studies (T1 of hyperpolarized ascorbates); format: physicochemical; details: spin-lattice relaxation of C1 carbon at 11.7 T; mean±SD
Method: NMR studies were performed on an 11.7 T Varian NOVA spectrometer (125 MHz ^13C, Varian Instruments) using a 10 mm ^15N/^31P/^13C broadband direct detect probe. Thermal and dynamic hyperpolarized spectra for [1-^13C] DHA and [1-^13C] Vitamin C were obtained as previously described, and used to calculate T1's and signal enhancements. For NMR studies of the reduction of [1-^13C] DHA to [1-^13C] Vitamin C, hyperpolarized [1-^13C] DHA was reacted with an excess of sodium cyanoborohydride (NaBH3CN).
(§3) In vitro methods to interrogate redox chemistry have relied on designer redox-sensitive fluorescent proteins (yellow- or green fluorescent protein) incorporating an artificial dithiol-disulfide pair, or on detection of ROS themselves via chemical switching. In general, fluorescent probes have limited clinical translation given poor tissue penetration; making MR-compatible hyperpolarized ^13C probes an attractive alternative. […] The material was polarized by using a DNP approach and dissolved with a hot water/EDTA solution, with T1's calculated as previously described. […] Vitamin C carbons are tabulated at both 11.7 T and 3 T, with the longest recorded T1 that of [1-^13C] […] Vitamin C were measured as 5.9±0.5% and 3.6±0.1% respectively, representing signal enhancements on the order of approximately 24,000 and 15,000-fold relative to thermal equilibrium at 3 T. […]

normal mice [6] = experiment: Dynamic 13C MR spectroscopy after injection of hyperpolarized probe in normal mice; format: in vivo, mouse
Method: as §1
Evidence of in vivo transformation was determining having obtained data validating hyperpolarized [1-^13C] DHA as a redox probe. The transport of DHA in vivo occurs by a mechanism analogous to that of glucose, by facilitated diffusion using GLUT1, GLUT3, and GLUT4. Since glucose is known to compete with the uptake of DHA, in vivo experiments were performed on animals (mice and rats) fasted overnight. […] Dynamic MRSI studies were carried out as previously published. 350 μl of a hyperpolarized 15 mM [1-^13C] DHA solution were injected similar to previously described methods for [1-^13C] pyruvate, in normal mice with a ^13C urea phantom present for chemical shift reference. In a separate set of normal mice, similar experiments were performed using hyperpolarized [1-^13C] Vitamin C at a slightly higher concentration, 50 mM. […] DHA in a normal mouse. The DHA resonance at 174 ppm reached a maximum at 19±1.7 secs post injection. […] Vitamin C in vivo. This chemical shift was confirmed both in vitro at neutral pH using ^13C urea as a reference, as well as in vivo with hyperpolarized [1-^13C] Vitamin C itself injected in a separate animal.

[7] = T1 studies of hyperpolarized ascorbates on a 3 T MRI scanner; format: physicochemical; details: spin-lattice relaxation of C1 carbon at 3 T; mean±SD
Method: as §1, §3

Compound: O=C[C@H]([18F])[C@@H](O)[C@H](O)[C@H](O)CO [FDG, 2-18F-2-deoxy-D-glucose]
18F signal in regions of tumor relative to surrounding regions (TRAMP tumors [1]): 6.8±3.6

Percent Polarization [2]: 5.9±0.5% | signal enhancement relative to thermal equilibrium ([2]; at 3 T): approximately 24,000 fold | Buildup Constant [2]: 1120 ± 50 s | VitC/DHA ratio (MCD mouse liver; after 2 weeks on MCD diet): 0.46±0.1 | VitC/VitC+DHA (MCD mouse liver; after 2 weeks on MCD diet): 0.30±0.5 | decrease in the VitC/DHA ratio from baseline (MCD mouse liver; after 2 weeks on MCD diet, P=0.005): 92% | decrease in the VitC/VitC+DHA ratio from baseline (MCD mouse liver; after 2 weeks on MCD diet, P=0.01): 48% | VitC/DHA ratio (MCD mouse liver; baseline): 0.98±0.09 | VitC/VitC+DHA (MCD mouse liver; baseline (normal liver)): 0.49±02 | VitC/Total Carbon (rat brains): 0.51±0.1 | VitC/Total Carbon (TRAMP mice): 0.29±0.09 | Vitamin C signal (normal mice [3]): no Vitamin C signal was observed | Total HP 13C in tumors relative to surrounding tissue (TRAMP tumors [4]; TRAMP mice): 2.1±0.4 | tumor HP VitC/[VitC+DHA] relative to surrounding tissue (TRAMP tumors [4]; TRAMP mice): 7.0±2.3 | HP VitC (ratio of VitC to total HP signal) (TRAMP tumors [4]; TRAMP tumors (N=4)): 0.23±0.03 | HP VitC (ratio of VitC to total HP signal) (TRAMP tumors [4]; benign prostate, P=0.001): 0.06±0.03 | HP VitC (ratio of VitC to total HP signal) (TRAMP tumors [4]; surrounding tissues, P=0.005): 0.05±0.02 | 11.7T T1 [5]: 20.5 ± 0.9 s | time of maximum of DHA resonance (174 ppm) post injection (normal mice [6]; mouse, in vivo): 19 ± 1.7 s | time of maximum of metabolite resonance (177.8 ppm, [1-13C] Vitamin C) (normal mice [6]; mouse, in vivo): 29 ± 1.7 s
Compound: O=C1C(=O)[13C](=O)O[C@@H]1[C@@H](O)CO [[1-^13C] DHA, [1-^13C] dehydroascorbate]

Percent Polarization [2]: 3.6±0.1% | Buildup Constant [2]: 1756 ± 97 s | 3T T1 [7]: 29.2 ± 2.5 s | 11.7T T1 [5]: 16.0 ± 0.8 s
Compound: O=[13C]1O[C@H]([C@@H](O)CO)C(O)=C1O [[1-^13C] Vitamin C, [1-^13C] ascorbic acid]
in vivo oxidation of hyperpolarized [1-13C] Vitamin C to [1-13C] DHA (normal mice [6]; 50 mM hyperpolarized [1-13C] Vitamin C, normal mice): trace oxidation; also recorded: trace conversion

From patent US20130149250A1, “HYPERPOLARIZED AGENTS FOR MRI CHARACTERIZATION OF REDOX SYSTEMS IN VIVO” (The Regents of the University of California, priority 2011, published 2013)
